Measurements from patent US20070015174A1, “High throughput formulation screening of drug candidates” (priority 2005, published 2007).
≈ marks a conversion by molar mass, not a printed value. Read-outs that look alike come from different tables or passages of the source.

Key:
[1] = High throughput formulation screening: solubility of compound in 96 formulations (5 μL scale, image capture); format: physicochemical; conditions: for solubility: thermodynamic from solid
Procedure: The solubility of the compound in the various excipients is then evaluated by comparing the captured images (e.g., first, second, third, and fourth images). […] All stock solutions were prepared with ultrapure ASTM Type I water and sterile-filtered using a 0.22 micron filter. The solutions were then attached to the MATRIX MAKER liquid-handling robot for sterile path, positive pressure dispensation into an SBS (Society for Biomolecular Screening) standard-sized 96 deep well plates. The screening formulations are defined in the CRYSTAL MINER software, which drives the MATRIX MAKER and allows for the rapid development of refinement screens for the optimization of lead hits. Once the formulations have been dispensed, the plate is sealed and centrifuged at 2000 rpm to ensure that each well contains a homogeneous solution. […] The DROP MAKER micro-scale liquid handler then dispenses 5 μL of the compound solution into a 96-well SBS format plate. […] Images were then captured of each well by the CRYSTAL MONITOR workstation (Session 1). Then 5 μL of each formulation screening solution were added to separate wells and images were captured for each well (Session 2) as above. Following image capture, the plate was heated to 45° C. for 30 minutes, then agitated for 10 minutes at room temperature during cool down. Additional images are captured on day one (t=1, Session 3) and day three (t=3, Session 4). Images and data annotation are exported to Excel for final report generation. The solubility of triclocarban in the formulations screening set (96 conditions) was obtained after the high throughput screening at target solubility of 10 mg/mL by the method described above: […]

[2] = cited from earlier work

solubility in formulation ([1]; 10 mg/mL, IV dosing solution PEG 300/polysorbate 80/EtOH/SGF (40/5/5/50)): nearly completely dissolved | solubility in formulation ([1]; 10 mg/mL, IV dosing solution PEG 300/polysorbate 80/SGF (45/5/50)): nearly completely dissolved | solubility in formulation ([1]; 10 mg/mL, NMP/polysorbate 80 (9/1)): easily dissolved | solubility in formulation ([1]; 10 mg/mL, PEG 300/polysorbate 80 (9/1)): easily dissolved | solubility in formulation ([1]; 10 mg/mL, PEG 400/polysorbate 80/EtOH (8/1/1)): easily dissolved | solubility in formulation ([1]; 10 mg/mL, PEG 400/polysorbate (3/1)): easily dissolved | solubility in formulation ([1]; 10 mg/mL, SEDDS carpryol 90/PEG 400/cremophor EL (4/3/3)): dissolved | solubility in formulation ([1]; 10 mg/mL, SEDDS labrafac CC/imwitor 988/cremophor (25/27/48)): dissolved | solubility in formulation ([1]; 10 mg/mL, SEDDS sesame oil/maisine 35-1/polysorbate 80 (25/27/48)): dissolved | solubility in formulation ([1]; 10 mg/mL, SEDDS soybean oil/maisine 35-1/polysorbate 80/EtOH (35/20/35/10)): dissolved | solubility in formulation ([1]; 10 mg/mL, cosolvent PEG 400/EtOH (7/3)): easily dissolved | solubility in formulation ([1]; 10 mg/mL, cosolvent PEG 400/EtOH/PG (4/1/5)): easily dissolved | solubility ([1]; Carpryol 90 (formulation screening solution), oil or lipid, target 10 mg/mL, Carpryol 90): ~10000 µg/mL (≈ 31.7 mM) | solubility ([1]; Cremophor EL (formulation screening solution), aqueous with cosolvent or surfactant or cyclodextrin, target 10 mg/mL, Cremophor EL): ~10000 µg/mL (≈ 31.7 mM) | solubility ([1]; Labrafil M 1944 CS (formulation screening solution), oil or lipid, target 10 mg/mL, Labrafil M 1944 CS): ~10000 µg/mL (≈ 31.7 mM) | solubility ([1]; Labrasol (formulation screening solution), aqueous with cosolvent or surfactant or cyclodextrin, target 10 mg/mL, Labrasol): ~10000 µg/mL (≈ 31.7 mM) | solubility ([1]; N-methyl-2-pyrrolidinone (formulation screening solution), organic solvent or mixture, target 10 mg/mL, N-methyl-2-pyrrolidinone): ~10000 µg/mL (≈ 31.7 mM) | solubility ([1]; Softigen 767 (formulation screening solution), aqueous with cosolvent or surfactant or cyclodextrin, target 10 mg/mL, Softigen 767): ~10000 µg/mL (≈ 31.7 mM) | solubility ([1]; lauroglycol FCC (formulation screening solution), oil or lipid, target 10 mg/mL, lauroglycol FCC): ~10000 µg/mL (≈ 31.7 mM) | solubility ([1]; peppermint oil (formulation screening solution), oil or lipid, target 10 mg/mL, peppermint oil): ~10000 µg/mL (≈ 31.7 mM) | solubility in formulation ([1]; target 10 mg/mL, 20% TPGS): partially dissolved | solubility in formulation ([1]; target 10 mg/mL, Capmul MCM C8): dissolve TCC completely | solubility in formulation ([1]; target 10 mg/mL, HPbCD): partially dissolved | solubility in formulation ([1]; target 10 mg/mL, Imwitor 988): dissolve TCC completely | solubility in formulation ([1]; target 10 mg/mL, PEG 300): dissolve TCC completely | solubility in formulation ([1]; target 10 mg/mL, PEG 400): dissolve TCC completely | solubility in formulation ([1]; target 10 mg/mL, Polysorbate 80): dissolve TCC completely | solubility in formulation ([1]; target 10 mg/mL, RMbCD): partially dissolved | solubility in formulation ([1]; target 10 mg/mL, adjustment of pH to between 2 and 10): no effect | solubility in formulation ([1]; target 10 mg/mL, corn oil): partially dissolved | solubility in formulation ([1]; target 10 mg/mL, dimethylacetamide): dissolve TCC completely | solubility in formulation ([1]; target 10 mg/mL, imwitor 380): partially dissolved | solubility in formulation ([1]; target 10 mg/mL, labrafac CC): partially dissolved | solubility in formulation ([1]; target 10 mg/mL, maisine 35-1): partially dissolved | solubility in formulation ([1]; target 10 mg/mL, neobee M-5): partially dissolved | solubility in formulation ([1]; target 10 mg/mL, oleic acid): partially dissolved | solubility in formulation ([1]; target 10 mg/mL, soybean oil): partially dissolved
Compound: O=C(Nc1ccc(Cl)cc1)Nc1ccc(Cl)c(Cl)c1 [TCC, 3,4,4′-trichlorocarbanilide]
solubility in formulation ([1]; target 10 mg/mL, 20% povidone): neither glycerine, safflower oil, sesame oil, nor 20% povidone had any effect | solubility in formulation ([1]; target 10 mg/mL, glycerine): neither glycerine, safflower oil, sesame oil, nor 20% povidone had any effect | solubility in formulation ([1]; target 10 mg/mL, safflower oil): neither glycerine, safflower oil, sesame oil, nor 20% povidone had any effect | solubility in formulation ([1]; target 10 mg/mL, sesame oil): neither glycerine, safflower oil, sesame oil, nor 20% povidone had any effect | solubility ([2]; 20% RMbCD with additives): about 5 mg/mL | solubility in organic solvents ([2]; acetone): soluble | solubility in organic solvents ([2]; propylene glycol): to some extent | intrinsic solubility (S0) ([2]; pure water, room temperature): less than 50 ng/ml | solubility in water ([2]; water): water-insoluble
